Measured values reported in DBAASP.
≈ marks a conversion by molar mass, not a printed value.

How the values were obtained:
Assay in all cases: ≥ marks a high value that may be exact or a test limit, other limits are often not marked, values filed in µg/mL are converted to µM
[1] = tested on: Bacillus subtilis KCTC 1998
[2] = tested on: Listeria monocytogenes KCTC 3710
[3] = tested on: Escherichia coli CCARM 1229
[4] = tested on: Pseudomonas aeruginosa 4007
[5] = tested on: Trichosporon beigelii KCTC 7707
[6] = tested on: Escherichia coli CCARM 1238
[7] = tested on: Pseudomonas aeruginosa 4891
[8] = tested on: Staphylococcus aureus ATCC 25923
[9] = tested on: Staphylococcus aureus CCARM 3090
[10] = tested on: Escherichia coli ATCC 25922
[11] = tested on: Staphylococcus aureus CCARM 3518
[12] = tested on: Pseudomonas aeruginosa ATCC 27853
[13] = tested on: Candida albicans KCTC 7270
[14] = tested on: Salmonella typhimurium KCTC 1926
Proteus mirabilis = tested on: Proteus mirabilis
[15] = tested on: Salmonella enterica subsp. enterica serovar Typhimurium ATCC 14028
Escherichia coli = tested on: Escherichia coli
Staphylococcus aureus = tested on: Staphylococcus aureus
Escherichia coli ML-35 = tested on: Escherichia coli ML-35
Bacillus megaterium Bm11 = tested on: Bacillus megaterium Bm11
[16] = tested on: Staphylococcus aureus ATCC 33592
[17] = tested on: Staphylococcus aureus ATCC 29213
[18] = tested on: Salmonella enterica subsp. enterica serovar Pullorum C79-13
[19] = tested on: Bacillus subtilis CMCC 63501
Escherichia coli K99 = tested on: Escherichia coli K99
Escherichia coli UB1005 = tested on: Escherichia coli UB1005
Escherichia coli K88 = tested on: Escherichia coli K88
[20] = tested on: Enterococcus faecalis ATCC 29212
Escherichia coli 078 = tested on: Escherichia coli 078
[21] = tested on: Staphylococcus epidermidis ATCC 12228
[22] = tested on: Salmonella enterica subsp. enterica serovar Typhimurium C77-31
Candida glabrata = tested on: Candida glabrata
Candida krusei = tested on: Candida krusei
[23] = tested on: Candida albicans ATCC 10231
Candida albicans = tested on: Candida albicans
Candida tropicalis = tested on: Candida tropicalis
Candida parapsilosis = tested on: Candida parapsilosis

CC[C@H](C)[C@H](NC(=O)CNC(=O)[C@H](CCC(N)=O)NC(=O)[C@H](CO)NC(=O)[C@@H](NC(=O)[C@H](CCCCN)NC(=O)[C@H](CCCCN)NC(=O)[C@H](CC(C)C)NC(=O)[C@H](C)NC(=O)[C@H](CC(N)=O)NC(=O)[C@H](CC(C)C)NC(=O)CN)C(C)C)C(=O)N[C@@H](Cc1cnc[nH]1)C(=O)N[C@@H](CCC(=O)O)C(=O)N[C@@H](C)C(=O)N[C@H](C(=O)N[C@@H](CCCCN)C(=O)N[C@@H](CC(C)C)C(=O)N[C@H](C(=O)N[C@@H](CC(N)=O)C(=O)N[C@@H](CC(N)=O)C(=O)N[C@@H](Cc1cnc[nH]1)C(=O)N[C@H](C(=O)N[C@@H](CCC(N)=O)C(N)=O)C(C)C)[C@@H](C)CC)[C@@H](C)CC [GLNALKKVSQGIHEAIKLINNHVQ]
MIC [1]: ≥ 32 µM
MIC [2]: ≥ 32 µM
MIC [3]: ≥ 32 µM
MIC [4]: ≥ 64 µM
MIC [5]: ≥ 64 µM
MIC [6]: ≥ 32 µM
MIC [7]: ≥ 64 µM
MIC [8]: 32 µM (≈ 84 µg/mL)
MIC [9]: ≥ 64 µM
MIC [10]: 16 µM (≈ 42 µg/mL)
MIC [11]: ≥ 64 µM
MIC [12]: 16 µM (≈ 42 µg/mL)
MIC [13]: ≥ 64 µM
MIC [14]: 16 µM (≈ 42 µg/mL)

CC[C@H](C)[C@H](NC(=O)CN)C(=O)N[C@@H](CC(C)C)C(=O)N[C@@H](CO)C(=O)N[C@@H](CCCCN)C(=O)N[C@@H](CC(C)C)C(=O)NCC(=O)N[C@@H](CCCCN)C(=O)N[C@@H](C)C(=O)N[C@@H](CC(C)C)C(=O)N[C@@H](CCCCN)C(=O)N[C@@H](CCCCN)C(=O)N[C@@H](C)C(=O)N[C@@H](C)C(=O)N[C@@H](CCCCN)C(=O)N[C@@H](Cc1cnc[nH]1)C(=O)N[C@@H](C)C(=O)N[C@@H](C)C(=O)N[C@@H](CCCCN)C(=O)N[C@@H](C)C=O [GILSKLGKALKKAAKHAAKA]
MIC (Proteus mirabilis): ≥ 32 µM
MIC [15]: 8 µM (≈ 15.9 µg/mL)
MIC (Escherichia coli): 4 µM (≈ 7.95 µg/mL)
MIC (Staphylococcus aureus): 2 µM (≈ 3.98 µg/mL)
MIC [8]: 8 µM (≈ 15.9 µg/mL)
MIC (Escherichia coli ML-35): 8 µM (≈ 15.9 µg/mL)
MIC (Bacillus megaterium Bm11): 4 µM (≈ 7.95 µg/mL)

CC[C@H](C)[C@H](NC(=O)[C@H](Cc1c[nH]c2ccccc12)NC(C)=O)C(=O)N[C@@H](CCCCN)C(=O)N[C@@H](CCCN=C(N)N)C(=O)N[C@@H](CC(C)C)C(=O)N[C@@H](CC(N)=O)C(=O)N[C@@H](CO)C(=O)N[C@@H](Cc1c[nH]c2ccccc12)C(=O)N[C@@H](CC(C)C)C(=O)N[C@@H](CCCN=C(N)N)C(=O)N[C@@H](CCCCN)C(N)=O [WIKRLNSWLRK]
MIC [16]: ≥ 32 µM

CC[C@H](C)[C@H](NC(=O)CNC(=O)[C@H](CCC(N)=O)NC(=O)[C@H](Cc1ccccc1)NC(=O)[C@@H](NC(=O)[C@H](CCCCN)NC(=O)[C@H](CCCCN)NC(=O)[C@H](CC(C)C)NC(=O)[C@H](C)NC(=O)[C@H](CC(N)=O)NC(=O)[C@H](CC(C)C)NC(=O)[C@@H](N)Cc1c[nH]c2ccccc12)C(C)C)C(=O)N[C@@H](Cc1cnc[nH]1)C(=O)N[C@@H](CCC(=O)O)C(=O)N[C@@H](C)C(=O)N[C@H](C(=O)N[C@@H](CCCCN)C(=O)N[C@@H](CC(C)C)C(=O)N[C@H](C(=O)N[C@@H](CC(N)=O)C(=O)N[C@@H](CC(N)=O)C(=O)N[C@@H](Cc1cnc[nH]1)C(=O)N[C@H](C(=O)N[C@@H](CCC(N)=O)C(N)=O)C(C)C)[C@@H](C)CC)[C@@H](C)CC [WLNALKKVFQGIHEAIKLINNHVQ]
MIC [1]: ≥ 32 µM
MIC [2]: ≥ 32 µM
MIC [3]: 16 µM (≈ 45 µg/mL)
MIC [4]: 16 µM (≈ 45 µg/mL)
MIC [5]: ≥ 64 µM
MIC [6]: 16 µM (≈ 45 µg/mL)
MIC [7]: 16 µM (≈ 45 µg/mL)
MIC [8]: 32 µM (≈ 90 µg/mL)
MIC [9]: ≥ 32 µM
MIC [10]: 16 µM (≈ 45 µg/mL)
MIC [11]: ≥ 32 µM
MIC [12]: 16 µM (≈ 45 µg/mL)
MIC [13]: ≥ 64 µM
MIC [14]: 16 µM (≈ 45 µg/mL)

CC[C@H](C)[C@H](NC(=O)[C@H](Cc1c[nH]c2ccccc12)NC(=O)[C@H](CCCCN)NC(=O)[C@H](Cc1c[nH]c2ccccc12)NC(=O)[C@@H](NC(=O)[C@H](Cc1c[nH]c2ccccc12)NC(=O)CNC(=O)[C@@H](NC(=O)[C@H](CCCCN)NC(=O)[C@H](CCCCN)NC(=O)[C@H](Cc1c[nH]c2ccccc12)NC(=O)[C@@H](N)CCCN=C(N)N)[C@@H](C)CC)C(C)C)C(N)=O [RWKKIGWVWKWI]
MIC [17]: 4 µM (≈ 6.74 µg/mL)
MIC [15]: 2 µM (≈ 3.37 µg/mL)
MIC [18]: 1 µM (≈ 1.69 µg/mL)
MIC [19]: 1 µM (≈ 1.69 µg/mL)
MIC (Escherichia coli K99): 2 µM (≈ 3.37 µg/mL)
MIC (Escherichia coli UB1005): 1 µM (≈ 1.69 µg/mL)
MIC (Escherichia coli K88): 2 µM (≈ 3.37 µg/mL)
MIC [20]: 2 µM (≈ 3.37 µg/mL)
MIC [8]: 2 µM (≈ 3.37 µg/mL)
MIC (Escherichia coli 078): 2 µM (≈ 3.37 µg/mL)
MIC [10]: 2 µM (≈ 3.37 µg/mL)
MIC [21]: 4 µM (≈ 6.74 µg/mL)
MIC [22]: 4 µM (≈ 6.74 µg/mL)

CC[C@H](C)[C@H](NC(=O)[C@@H](NC(=O)CNC(=O)[C@H](CCCN=C(N)N)NC(=O)[C@H](CCC(N)=O)NC(=O)[C@H](Cc1cnc[nH]1)NC(=O)[C@H](CC(C)C)NC(=O)[C@H](CCCN=C(N)N)NC(=O)[C@@H](NC(=O)[C@H](CC(C)C)NC(=O)[C@@H](NC(=O)[C@@H](NC(=O)[C@H](CC(C)C)NC(=O)[C@H](CC(C)C)NC(=O)[C@@H](N)C(C)C)C(C)C)[C@@H](C)O)[C@@H](C)O)C(C)C)C(=O)N[C@@H](Cc1ccc(O)cc1)C(=O)N[C@@H](CCCN=C(N)N)C(=O)N[C@@H](CCCCN)C(=O)N[C@@H](Cc1c[nH]c2ccccc12)C(=O)N[C@@H](CCCN=C(N)N)C(=O)N[C@@H](Cc1cnc[nH]1)C(=O)N[C@@H](Cc1ccccc1)C(=O)N[C@@H](CO)C(=O)NCC(=O)N[C@@H](CCCN=C(N)N)C(=O)N[C@@H](CCCCN)C(=O)N[C@@H](Cc1ccc(O)cc1)C(=O)N[C@@H](CCCN=C(N)N)C(=O)O [VLLVTLTRLHQRGVIYRKWRHFSGRKYR]
MIC (Candida glabrata): ≥ 50 µM
MIC (Candida krusei): 25 µM (≈ 88.5 µg/mL)
MIC [23]: 25 µM (≈ 88.5 µg/mL)
MIC (Candida albicans): 25 µM (≈ 88.5 µg/mL)
MIC (Candida tropicalis): 12.5 µM (≈ 44.3 µg/mL)
MIC (Candida parapsilosis): 25 µM (≈ 88.5 µg/mL)
